Common to all, as to experiment: inhibition of tumour cell growth, NCI panel, 48 h
The subject of test [1] is EKVX NSCLC.
For test [2], the system named is HOP-62 NSCLC.
In test [3] the test system is K-562 leukemia.
Test [4] relates to M14 melanoma.
In test [5] the test system is SN12C renal.
The subject of test [6] is SR leukemia.
Test [7] concerns BT-549 breast.
For test [8], the system named is DU-145 prostate.
Test [9] deals with MCF7 breast.
In test [10] the test system is SK-MEL-28 melanoma.

Structures are written as SMILES.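 Each compound was tested at five concentrations against cells in 96-well plates for 48 hours. GI50 = concentration required for 50% inhibition of growth. TGI marks complete inhibition of growth.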

In PubChem BioAssay (NCI) one finds TGI and GI50 data, which are given here for 19 compounds.

As to `Cc1ccc(S(=O)(=O)NNS(C)(=O)=O)cc1`, the TGI in [1], in test [2], in test [3], in [4], in [5] and in [6] was over 100 µM throughout.

Regarding `O=C1C(Cl)=C(NCCCN(CCCNC2=C(Cl)C(=O)c3ccccc3C2=O)C2=C(Cl)C(=O)c3ccccc3C2=O)C(=O)c2ccccc21`, the GI50 is 2.5 µM in test [7]; 1.68 µM in [8]; 2.62 µM in [1]; 3.8 µM in test [2]; 1.48 µM in test [9]; 2.15 µM in [10]. The GI50 in test [5] was 1.51 µM. Also, the TGI stood at 13.5 µM in test [7]; 3.06 µM in test [8]; 13.9 µM in [1]; 42.3 µM in test [2]; 3.89 µM in test [9]; 4.53 µM in test [10]. For the same compound, in test [5], the TGI was found to be 3.51 µM.

`Clc1ccc(-c2nc(NCc3ccco3)c3ccccc3n2)c(Cl)c1`: the GI50 was 8.38 µM in [8]; 15.8 µM in [2]; 8.7 µM in test [3]; 17.4 µM in [4]; 6.38 µM in test [9]; 24.5 µM in [10]. For the same compound, the GI50 in test [5] is 16.1 µM; in test [6], 10.1 µM. Moreover, the TGI was 29.6 µM in test [8]; 34.7 µM in test [2]; 60.4 µM in [3]; 36.1 µM in test [4]; over 100 µM in test [9]; over 100 µM in [10]. The results for the TGI in test [5] and in test [6] were 44.9 µM and 44.7 µM, respectively.

On to `COc1ccc2c(c1)[n+]([O-])c(-c1ccccc1Cl)c(N)[n+]2[O-]`, for which the TGI in [1], in test [2], in test [3], in test [4], in test [10] and in [5] was over 100 µM each time. In test [6], this compound registered a TGI of over 100 µM.

As to `COc1ccc2nc3ccccc3c(NCCCCN(CCCl)CCCl)c2c1`, the TGI turned out to be 24.8 µM in test [2]; 5.23 µM in test [9]; 8.02 µM in test [10]; 3.13 µM in test [5]; 2.79 µM in test [6].

Consider `CN(C)c1ccc2[nH]c3c(C(N)=O)cc(=O)c(=O)c=3oc2c1`, for which the GI50 was 4.6 µM in [8]; 3.36 µM in [1]; 2.42 µM in test [2]; 0.358 µM in test [3]; 2.93 µM in test [4]; 1.64 µM in test [9]. The values for the GI50 in [10], in test [5] and in test [6] were 4.2 µM, 1.95 µM and 0.942 µM, respectively. Further, the TGI in test [8] was over 100 µM; in [1], 61.6 µM; in test [2], over 100 µM; in [3] it was over 100 µM; in test [4], over 100 µM; in [9], 8.64 µM. In addition, the TGI is over 100 µM in [10], 7.23 µM in test [5] and 8.49 µM in test [6].

Turning to `CCCCOC(=O)NC(=O)c1cn(CCCOC(=O)CCCCCCCCC(=O)OCCCn2cc(C(=O)NC(=O)OCCCC)c(=O)n(C)c2=O)c(=O)n(C)c1=O`, the TGI in [1], in test [2], in test [3], in [4], in test [10] and in [5] was over 100 µM in each case. In addition, the TGI in test [6] is over 100 µM.

As for `CSc1nnc(C(C#N)C#N)nn1`, the TGI in test [1], in test [2], in [3], in test [4], in test [5] and in test [6] was over 100 µM throughout.

Regarding `COc1cc(O)c(C(=O)/C=C/c2ccc(OC)c(OCc3ccccc3)c2)c(OC)c1`, the TGI in test [1], in test [2], in [3], in [4], in [5] and in [6] was over 100 µM in each case.

Regarding `CCOCCOCCOCCOCCOCCOCCOCCOCCOCCO` (tested in a mixture with another compound), the GI50 in [7] was 1.29 µM; in [8], 2.6 µM; in test [1], 1.26 µM; in test [2], 1.07 µM; in [4] it was 2.02 µM; in test [9] it was 1.04 µM. Also, the GI50 in [10] was 3.1 µM. For the same compound, the TGI in test [7] was determined as 4.75 µM; in [8], 15.2 µM; in test [1] it was 9.62 µM; in [2], 4.45 µM; in test [4], 7.08 µM; in [9], 4.58 µM. The TGI in [10] is over 32.5 µM.

For the compound `CC(=O)Nc1ccc(/C=c2\sc3nnc(-c4cccnc4)n3c2=O)cc1`, the TGI amounted to 55.2 µM in test [1]; 52.6 µM in [2]; 70.1 µM in [3]; 39.2 µM in test [4]; 33 µM in test [10]; 31 µM in [5]. This compound also came in with a TGI in test [6] of 46.7 µM.

As to `NC(=O)c1ncn(C2OC(CO)C(O)C2O)c1O` (stereo not given), the TGI in test [1], in test [2], in [3], in test [4], in test [10] and in test [5] was over 100 µM throughout. Also, the TGI in test [6] was over 100 µM.

For the compound `O=C1[C@@H]2C(c3ccccc3[N+](=O)[O-])=NO[C@@H]2C(=O)N1c1ccc(Cc2ccc(N3C(=O)[C@H]4C(c5ccccc5[N+](=O)[O-])=NO[C@H]4C3=O)cc2)cc1`, the TGI in test [1], in test [2], in test [3], in [4], in test [10] and in test [5] was over 100 µM each time. In [6], this compound displayed a TGI of over 100 µM.

On to `COc1ccc(C(=O)C(C(=O)C(=O)NCCCNC(=O)C(=O)C(C(=O)c2ccc(OC)cc2)c2ccc(OC)cc2)c2ccc(OC)cc2)cc1` (stereo not given), for which the TGI in test [1], in test [2], in test [3], in test [4], in test [10] and in test [6] was over 100 µM each time.

For the compound `Cc1ccc(Nc2nc(-c3ccc(-c4ccc([N+](=O)[O-])cc4)o3)cs2)cc1`, the TGI in [2], in test [3], in test [4], in test [10], in test [5] and in [6] was over 100 µM throughout.

In the case of `S=C(SSC(=S)N1CCCCC1)N1CCCCC1`, the GI50 was 16.6 µM in [7]; 15.5 µM in test [8]; 28.4 µM in [1]; 28.4 µM in [2]; 22.5 µM in test [3]; 8.34 µM in test [4]. Moreover, the GI50 in test [10] is 18.9 µM; in test [5] it was 17.2 µM. For the same compound, the TGI in test [7] is 44.6 µM; in [8] it was over 100 µM; in [1], over 100 µM; in test [2], over 100 µM; in [3], over 100 µM; in [4] it was 22.9 µM. In addition, the values for the TGI in test [10] and in [5] were 69.3 µM and 50.4 µM, respectively.

Regarding `CN(C)N=Nc1ccc(S(N)(=O)=O)cc1`, the TGI in test [1], in test [2], in test [3], in test [4], in test [10] and in test [5] was over 100 µM in each case. In test [6], the TGI is over 100 µM.

On to `COc1ccc(/C=C/c2ccnc3ccccc23)cc1OC`, for which the TGI in test [8] amounted to 26.6 µM; in test [1], 27.9 µM; in test [2] it was 28.5 µM; in test [3], 22.1 µM; in [4], 34.9 µM; in test [9] it was 21.6 µM. Besides, the TGI in test [10] stood at 31.7 µM; in test [5], 62.1 µM; in [6], 54.2 µM.

In the case of `O=C(Oc1c(Cl)cc(Cl)cc1Cl)c1ccccc1Nc1ccnc(C(F)(F)F)c1`, the GI50 is 2.42 µM in [7]; 3.31 µM in test [1]; 2.66 µM in [2]; 2.42 µM in [3]; 2.13 µM in test [4]; 4.68 µM in test [9]. For the same compound, the results for the GI50 in test [10] and in [5] were 24.1 µM and 3.07 µM, respectively. Also, the TGI in [7] is 6.98 µM; in test [1], 13 µM; in test [2], 8.8 µM; in test [3], over 100 µM; in test [4], 4.99 µM; in test [9] it was over 100 µM. The TGI in test [10] was over 100 µM; in test [5], 14.5 µM.
